Structures are written as SMILES.

One assay concerns MOLM14 (D835Y) cells. The experiment in a line: Combination drug screening with Venetoclax in MOLM14 (D835Y) cells. It is filed as cell-based. The arrangement: key to Sum Excess HSA: negative = synergy, positive = antagonism with Venetoclax; relative score. The settings on record: 10 × 10 dataset. The protocol: Combination drug therapy has the potential to produce enhanced effects with lower side effects not obtained using either agent alone, or beyond the additive effect of the different concentrations of the two different agents. To determine whether enhanced effects are observed in different drug combinations in the setting of FLT3 resistance, combination drug screening was performed as previously described (Mathews-Griner, L. A. et al., Proc. Nat. Acad. Sci., 2014, 111:2439-2454; Lin, G. L. et al., Sci. Trans. Med., 2019, 11:eaaw0064). Briefly, 10 nL of compounds were acoustically dispensed into 1536-well white polystyrene tissue culture-treated plates with an Echo 550 acoustic liquid handler (Labcyte). MOLM14 (D835Y) Cells were then added to compound-containing plates at a density of 500-cells/well in 5 μL of medium. A 10-point custom concentration range was used for all listed drugs. Plates were incubated for 48 hours at standard incubator conditions covered by a stainless steel gasketed lid to prevent evaporation. 48 h post compound addition, 3 μL of Cell Titer Glo (Promega) were added to each well and plates were incubated at room temperature for 15 minutes with the stainless-steel lid in place. Luminescence readings were taken using a Viewlux imager (PerkinElmer) with a 2 second exposure time per plate.
The sum excess HSA scores for Compounds 25, 31, 35, 50, 51, 80, 82, 97, 118, and 119 in Table 28 are used herein to quantitate drug interactions for enhanced pharmacological effects in the MOLM14 (D835Y) cell line. This is a FLT3-ITD cell line that harbors a FLT3 resistance mutation in the tyrosine kinase domain at position 835 (D835Y). More information on excess HSA scores can be found in Vlot, Anna H. C. et al., Drug Discovery Today, 2019, 24(12):2286-2298. […] However, different methodologies may yield different numerical scores, and different definitions of what constitutes a deviation from mere additivity vs true drug synergy. Table 28 summarizes the combination results of Compounds 25, 31, 35, 50, 51, 80, 82, 97, 118, and 119 with Venetoclax. A large negative sum excess HSA score indicates profound synergism with Venetoclax, whereas a positive excess HSA score indicates antagonism with Venetoclax in certain drug combinations.
The degree to which combination therapy has to potential to produce enhanced effects with lower side effects not obtained using either agent alone, or beyond the additive effect of the different concentrations of the two different agents depends on the nature of the drugs used in the combination, and the specific doses/concentrations at which they are ultimately used in the therapeutic regimen. A negative excess sum HSA score illustrates that the drug combination is better than either drug alone (at the concentrations being studied), and the sum excess HSA score is a measurement of the overall deviation from additivity that is observed across the entire matrix of concentrations studied. […] However, the utility in certain drug combinations vs others should not be distinguished based on cutoffs between excess sum HSA scores, because the score itself is only a relative indicator that is completely dependent on experimental design and is not an absolute number. Furthermore, the concept of what constitutes clinically meaningful drug synergy is something that is still being debated, not only between pharmacologists and physicians, but amongst pharmacologists themselves. The data in Table 28 illustrate that the nature of the combined effect is dependent on the characteristics of each individual compound, as not every compound produced a synergistic interaction in combination with Venetoclax.
Consider `FC(F)c1cn2c(-c3cccc(N[C@H]4CNCC[C@@H]4F)n3)cnc2cn1` [Compound 25, 6-(6-(difluoromethyl)imidazo[1,2-a]pyrazin-3-yl)-N-((3S,4S)-4-fluoropiperidin-3-yl)pyridin-2-amine], for which the “Interaction with Venetoclax” value is given as “Synergistic”. For the molecule `CC(C)(O)c1cn2c(-c3nc(N[C@H]4CNCC[C@@H]4F)c(F)cc3F)cnc2cn1` [Compound 35, 2-(3-(3,5-difluoro-6-(((3S,4S)-4-fluoropiperidin-3-yl)amino)pyridin-2-yl)imidazo[1,2-a]pyrazin-6-yl)propan-2-ol], the “Interaction with Venetoclax” value is listed as “Antagonistic”.

Staying with this assay, now noted: combination with Venetoclax, 10 × 10 dataset, 48 hours.
Take `CC(O)(c1cn2c(-c3cccc(N[C@H]4CNCC[C@@H]4F)n3)cnc2cn1)C(F)(F)F` (single isomer, unassigned) [Compound 80]: the “Sum Excess HSA” value is listed as −261.7.

Regarding `CC(O)(c1cn2c(-c3cccc(N[C@H]4CNCC[C@@H]4F)n3)cnc2cn1)C(F)(F)F` (single isomer, unassigned) [Compound 82], the “Sum Excess HSA” value was −155.8. On the same count and under the same terms, the same measure for `FC(F)c1cn2c(-c3cccc(N[C@H]4CNCC[C@@H]4F)n3)cnc2cn1` [Compound 25, 6-(6-(difluoromethyl)imidazo[1,2-a]pyrazin-3-yl)-N-((3S,4S)-4-fluoropiperidin-3-yl)pyridin-2-amine]: −834.6; for `CC(C)(O)c1cn2c(-c3cccc(N[C@H]4CNCC[C@@H]4F)n3)cnc2cn1` [Compound 31, 2-(3-(6-(((3S,4S)-4-fluoropiperidin-3-yl)amino)pyridin-2-yl)imidazo[1,2-a]pyrazin-6-yl)propan-2-ol]: −150.3956. Regarding `CC(C)(O)c1cn2c(-c3nc(N[C@H]4CNCC[C@@H]4F)c(F)cc3F)cnc2cn1` [Compound 35, 2-(3-(3,5-difluoro-6-(((3S,4S)-4-fluoropiperidin-3-yl)amino)pyridin-2-yl)imidazo[1,2-a]pyrazin-6-yl)propan-2-ol], the “Sum Excess HSA” value came out at 386.4. The same measure, in the same setting: the same measure for `F[C@H]1CNC[C@@H]1Nc1cccc(-c2cnc3cnc(C4CC4)cn23)n1` [Compound 50, 6-(6-cyclopropylimidazo[1,2-a]pyrazin-3-yl)-N-((3S,4S)-4-fluoropyrrolidin-3-yl)pyridin-2-amine]: −552. Consider `F[C@H]1CCNC[C@@H]1Nc1cccc(-c2cnc3cnc(C4CC4)cn23)n1` [Compound 51, 6-(6-cyclopropylimidazo[1,2-a]pyrazin-3-yl)-N-((3S,4S)-4-fluoropiperidin-3-yl)pyridin-2-amine], for which the “Sum Excess HSA” value was −644.5.

As to `O=S1(=O)CCCN1c1cn2c(-c3cccc(N[C@H]4CNCC[C@@H]4F)n3)cnc2cn1` [Compound 97, 2-(3-(6-(((3S,4S)-4-fluoropiperidin-3-yl)amino)pyridin-2-yl)imidazo[1,2-a]pyrazin-6-yl)isothiazolidine 1,1-dioxide], the “Sum Excess HSA” value is listed as −171.7. Turning to `O=C1NCCN1c1cn2c(-c3cccc(N[C@H]4CNCC[C@@H]4F)n3)cnc2cn1` [Compound 118, 1-(3-(6-(((3S,4S)-4-fluoropiperidin-3-yl)amino)pyridin-2-yl)imidazo[1,2-a]pyrazin-6-yl)imidazolidin-2-one], the “Sum Excess HSA” value was −550.9.

`O=C1CCCN1c1cn2c(-c3cccc(N[C@H]4CNCC[C@@H]4F)n3)cnc2cn1` [Compound 119, 1-(3-(6-(((3S,4S)-4-fluoropiperidin-3-yl)amino)pyridin-2-yl)imidazo[1,2-a]pyrazin-6-yl)pyrrolidin-2-one]: the “Sum Excess HSA” value is given as −762.
